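Cultured in 96-well plates, cells were exposed to test compound for 48 hours across five concentrations. GI50 is the concentration that inhibits growth by half.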 Calls of active or inactive are those of the source. No stated cut-off is given here; in the data, active = GI50 up to about 1.1 µM and inactive = higher.
Experiments:
Experiment in all cases: inhibition of tumour cell growth, NCI panel, 48 h
ACHN = tested on: ACHN
CAKI-1 = tested on: CAKI-1
DU-145 = tested on: DU-145
HCC 2998 = tested on: HCC 2998
HCT-15 = tested on: HCT-15
IGROV-1 = tested on: IGROV-1
KM12 = tested on: KM12
MCF7 = tested on: MCF7
MDA-MB-435 = tested on: MDA-MB-435
NCI-H226 = tested on: NCI-H226
NCI-H23 = tested on: NCI-H23
NCI-H522 = tested on: NCI-H522
NCI/ADR-RES = tested on: NCI/ADR-RES
RPMI-8226 = tested on: RPMI-8226
SF-268 = tested on: SF-268
SF-295 = tested on: SF-295
SF-539 = tested on: SF-539
SK-MEL-5 = tested on: SK-MEL-5
SW-620 = tested on: SW-620
UACC-257 = tested on: UACC-257

Compound | GI50 (ACHN) | GI50 (CAKI-1) | GI50 (DU-145) | GI50 (HCC 2998) | GI50 (HCT-15) [µM] | GI50 (IGROV-1) | GI50 (KM12) | GI50 (MCF7) | GI50 (MDA-MB-435) | GI50 (NCI-H226) | GI50 (NCI-H23) | GI50 (NCI-H522) | GI50 (NCI/ADR-RES) | GI50 (RPMI-8226) | GI50 (SF-268) | GI50 (SF-295) | GI50 (SF-539) | GI50 (SK-MEL-5) | GI50 (SW-620) | GI50 (UACC-257)
COc1ccnc2c1C(=O)c1nc3ccccc3c3ccnc-2c13 | 0.0634 µM (active) | 0.181 µM (active) | 0.0479 µM (active) | 0.0687 µM (active) | < 0.01 | 0.177 µM (active) | 0.101 µM (active) | 0.0807 µM (active) | 0.396 µM (active) | 0.17 µM (active) | 0.271 µM (active) | 0.0375 µM (active) | 0.0713 µM (active) | 0.201 µM (active) | 0.137 µM (active) | 0.169 µM (active) | 0.373 µM (active) | 0.0317 µM (active) | 0.0809 µM (active) | 0.198 µM (active)
O=[N+]([O-])c1cc(Cl)ccc1Sc1ccccc1 | > 100 µM (inactive) | 93.8 µM (inactive) | > 100 µM (inactive) | 87.9 µM (inactive) | 72.3 | > 100 µM (inactive) | 98.6 µM (inactive) | > 100 µM (inactive) | > 100 µM (inactive) | 34.8 µM (inactive) | > 100 µM (inactive) | > 100 µM (inactive) | > 100 µM (inactive) | > 100 µM (inactive) | > 100 µM (inactive) | > 100 µM (inactive) | > 100 µM (inactive) | 75.2 µM (inactive) | > 100 µM (inactive) | > 100 µM (inactive)
Cc1cc(S(=O)(=O)Nc2nc(N)n(C)n2)c(S)cc1Cl | > 10 µM (inactive) | > 10 µM (inactive) | > 10 µM (inactive) | > 10 µM (inactive) | > 10 | > 10 µM (inactive) | > 10 µM (inactive) | > 10 µM (inactive) | > 10 µM (inactive) | > 10 µM (inactive) | > 10 µM (inactive) | > 10 µM (inactive) | > 10 µM (inactive) | > 10 µM (inactive) | > 10 µM (inactive) | > 10 µM (inactive) | > 10 µM (inactive) | > 10 µM (inactive) | > 10 µM (inactive) | > 10 µM (inactive)
CC(C)(C)OC(=O)N/N=C(/N)Cc1ccccc1 | > 100 µM (inactive) | > 100 µM (inactive) | > 100 µM (inactive) | > 100 µM (inactive) | > 100 | > 100 µM (inactive) | > 100 µM (inactive) | > 100 µM (inactive) | > 100 µM (inactive) | > 100 µM (inactive) | > 100 µM (inactive) | > 100 µM (inactive) | > 100 µM (inactive) | > 100 µM (inactive) | > 100 µM (inactive) | > 100 µM (inactive) | > 100 µM (inactive) | > 100 µM (inactive) | > 100 µM (inactive) | > 100 µM (inactive)
C[C@@H]1CC[C@H]2C(C)(C)[C@H]3C[C@@]12CC[C@@]3(C)O [CEDROL] | > 100 µM (inactive) | > 100 µM (inactive) | > 100 µM (inactive) | 52.2 µM (inactive) | 59.3 | > 100 µM (inactive) | 48.1 µM (inactive) | > 100 µM (inactive) | 92.5 µM (inactive) | 77.1 µM (inactive) | > 100 µM (inactive) | 45.9 µM (inactive) | > 100 µM (inactive) | 24.6 µM (inactive) | > 100 µM (inactive) | > 100 µM (inactive) | > 100 µM (inactive) | 42.7 µM (inactive) | > 100 µM (inactive) | > 100 µM (inactive)
C=C(CC)C(=O)c1ccc(OCC(=O)O)c(Cl)c1Cl [ETHACRYNIC ACID] | 26.8 µM (inactive) | 14.9 µM (inactive) | 29.5 µM (inactive) | 17.8 µM (inactive) | 22.6 | 22 µM (inactive) | 5.5 µM (inactive) | 6.05 µM (inactive) | 17.5 µM (inactive) | 15.5 µM (inactive) | 25 µM (inactive) | 14.8 µM (inactive) | 26.7 µM (inactive) | 14.5 µM (inactive) | 16.7 µM (inactive) | 35.6 µM (inactive) | 7.87 µM (inactive) | 25.8 µM (inactive) | 19.3 µM (inactive) | 18.9 µM (inactive)

Reference: ChEMBL document CHEMBL1201862, “PubChem BioAssay data set” (2004)
